In patent US6872841B2 (The University of North Carolina at Chapel Hill, priority 2002, dated 2005):
Like-named read-outs stand apart in the source and are kept apart here.

Columns and labels:
[1] = test system: KB (nasopharyngeal carcinoma); assay: Cell growth inhibition (standard SRB assay), KB; assay type: cell-based, human; conditions: 3 days of continuous treatment, read-out: Cell growth inhibition ED50
[2] = test system: KB-7d (MRP-pleotrophic multidrug-resistant KB sub-clone); assay: Cell growth inhibition (standard SRB assay), KB-7d; assay type: cell-based, human; conditions: 3 days of continuous treatment, read-out: Cell growth inhibition ED50
KB cells = assay: Clonogenic assay; assay type: cell-based, human; conditions: 5 μM for 30 minutes, colonies after 12 days
Protocol: (§1) Biological Assay and Results. […] Freshly trypsinized KB cells were exposed to drug at 5, 0.5, or 0.05 μM for 30 minutes, respectively. Then, 250 or 500 cells were immediately plated and left undisturbed for 12 days. Colonies were fixed with formalin and stained with toluidine blue.

DNA topoisomerase II = assay: In vitro topoisomerase II inhibition, plasmid relaxation/cleavage assay; assay type: biochemical; conditions: for Minimum concentration to detect linear DNA: DNA topoisomerase II inhibition; for Relative activity as topoisomerase II inhibitor versus standards: compared with GL-331 and etoposide
[3] = test system: A549 (lung adenocarcinoma); assay: Cell growth inhibition (standard SRB assay), A549; assay type: cell-based, human; conditions: 3 days of continuous treatment, read-out: Cell growth inhibition ED50
[4] = test system: MCF-7 (breast adenocarcinoma); assay: Cell growth inhibition (standard SRB assay), MCF-7; assay type: cell-based, human; conditions: 3 days of continuous treatment, read-out: Cell growth inhibition ED50
[5] = test system: KB (nasopharyngeal carcinoma); assay: Cytotoxicity (cell killing after 30 minutes of treatment), KB; conditions: kills 50% of the cells after 30 minutes of treatment
Protocol: as §1

[6] = test system: KB-7d (MRP-pleotrophic multidrug-resistant KB sub-clone); assay: Cytotoxicity (cell killing after 30 minutes of treatment), KB-7d; conditions: kills 50% of the cells after 30 minutes of treatment
Protocol: as §1

[7] = test system: A549 (lung adenocarcinoma); assay: Cytotoxicity (cell killing after 30 minutes of treatment), A549; conditions: kills 50% of the cells after 30 minutes of treatment
[8] = test system: MCF-7 (breast adenocarcinoma); assay: Cytotoxicity (cell killing after 30 minutes of treatment), MCF-7; conditions: kills 50% of the cells after 30 minutes of treatment

| Compound | EC50 [1] [µM] | EC50 [2] [µM] | % Inhibition (KB cells) [%] | Minimum concentration to detect linear DNA (DNA topoisomerase II) [µM] | Relative activity as topoisomerase II inhibitor versus standards (DNA topoisomerase II) | EC50 [3] [µM] | EC50 [4] [µM] | Cytotoxicity LD50 [5] [µM] | Cytotoxicity LD50 [6] [µM] | Cytotoxicity LD50 [7] [µM] | Cytotoxicity LD50 [8] [µM] | EC50 ([3]; Homo sapiens, 72 h) [µM] | EC50 ([4]; Homo sapiens, MCF7, 72 h) [µM] | EC50 ([1]; Homo sapiens, 72 h) [µM] | EC50 ([2]; Homo sapiens, KB7D, 72 h) [µM] |
| --- | --- | --- | --- | --- | --- | --- | --- | --- | --- | --- | --- | --- | --- | --- | --- |
| 4′-O-demethyl-4β-[4″-(methyl L-tryptophan-N-carbonyl)-anilino]-4-desoxypodophyllotoxin [Compound 13] | 0.75 | < 0.1 | 82 | 5 | at least as active as GL-331 and four-fold more active than etoposide | – | – | – | – | – | – | – | – | – | – |
| 4′-O-demethyl-4β-{4″-[4′″-(benzimidazol-2″″-yl)-amido]-anilino}-4-desoxypodophyllotoxin [Compound 14] | > 25 | – | – | – | – | – | – | – | – | – | – | – | – | – | – |
| COc1cc(C2c3cc4c(cc3C(NC(=O)[C@H](Cc3ccc(O)cc3)NC(=O)OCc3ccccc3)C3COC(=O)C23)OCO4)cc(OC)c1O (stereo partly drawn) [Compound 10, 4′-O-demethyl-4β-[(N—CBZ-L-tyrosine-carbonyl)-amino]-4-desoxy-podophyllotoxin] | 2.3 | 6.7 | – | – | – | > 20 | – | – | – | – | – | – | – | – | – |
| COC(=O)[C@H](Cc1ccc(O)cc1)NC(=O)c1ccc(NC2c3cc4c(cc3C(c3cc(OC)c(O)c(OC)c3)C3C(=O)OCC23)OCO4)cc1 (stereo partly drawn) [Compound 12, 4′-O-demethyl-4β-[4″-(methyl L-tyrosine-N-carbonyl)-anilino]-4-desoxy-podophyllotoxin] | 1.9 | 5 | 99.5 | 5 | at least as active as GL-331 and four-fold more active than etoposide | 2.4 | 4.5 | 1.7 | <20 | 12.5 | <3.1 | – | – | – | – |
| COc1cc([C@@H]2c3cc4c(cc3[C@@H](O[C@@H]3O[C@@H]5CO[C@@H](C)O[C@H]5[C@H](O)[C@H]3O)[C@H]3COC(=O)[C@H]23)OCO4)cc(OC)c1O [Etoposide] | – | – | – | 20 | – | – | – | 49.0 | >50 | >50 | 21 | 5.2 | > 20 | 0.75 | > 10 |
| COc1cc([C@@H]2c3cc4c(cc3[C@@H](Nc3ccc([N+](=O)[O-])cc3)[C@H]3COC(=O)[C@H]23)OCO4)cc(OC)c1O [GL-331, reference compound] | 0.3 | 1.9 | 46 | 5 | – | 0.7 | 12 | 9.9 | <50 | 6.6 | 5.3 | – | – | – | – |
